Experimental data published in patent publication US12622902B2, “Anti-arrhythmic pharmaceutical composition and preparation method therefor” (JIANGSU KANION PHARMACEUTICAL CO., LTD., priority 2020, dated 2026).

Assays:
[1] = Study of compositions of compound A and its salt under moisture and heat; assay type: physicochemical; settings: condition of moisture and heat
Description: Accordingly, the present application provides an anti-arrhythmic pharmaceutical composition with high stability and rapid dissolution, and a preparation method thereof.

[2] = test system: ventricular tachycardia and ventricular fibrillation; settings: cited from earlier work

stability of the drug in a pharmaceutical composition [1]: decomposed
SMILES: COc1cc2c(cc1OCc1ccccc1)C(Cc1cccc(NS(C)(=O)=O)c1)NCC2 (stereo not drawn) [compound A, 1-(3-methanesulfonamidobenzyl)-6-methoxy, 7-benzyloxy-1,2,3,4-tetrahydroisoquinoline]
effect on ventricular tachycardia and ventricular fibrillation [2]: effective | action potential duration ([2]; class III anti-arrhythmic drug): can prolong
